Entries after “also recorded” stand apart in the source; their conditions may differ.
Key:
Type in all cases: in vivo, rat
Wistar rats [1] = assay: Growth rate (body weight) and food intake of Wistar rats; conditions: for Body mass: 2.5 μg/100 g continuous
Protocol: Adult male rat bred in the animal room facilities of Laboratory of Fundamental and Applied Bioenergetics (Wistar strain) or purchased from Charles-River Laboratories, Domaine des oncins, L'ARBRESLE France [(genetically obese normoglycemic (Zucker or Fa/Fa) or diabetic (ZDF)] were caged individually in stainless steel hanging cages and maintained in a 22° C., 50±10% relative humidity and 12 h:12 h light:dark environment. All animals were fed ad libitum with a standard rat chow (Safe A04, Villemoisson, France) and tap water. Body mass and food intake were recorded twice/thrice a week and fresh food was provided at the same time to ensure minimal disturbance to the animals' food behavior.
Eight-week old rats (300 g±10 g) were anesthetized by simultaneous intraperitoneal injection of diazepam 4 mg/kg and ketamine 100 mg/kg. In order to maintain body temperature during the surgery (10 min), animals were placed on a warm blanket. After interscapular shaving, a small incision of 0.5 cm of the skin allows the subcutaneous implantation of a small pellet (containing rT3 or 3′,3-T2) with a 10-gauge precision trochar. The pellets, manufactured by Innovative Research of America (Sarasota, Fla., USA) are constituted of a biodegradable matrix that effectively and continuously release the active product in the animal.
[…] (reverseT3) or 3-3′ diiodothyronine (3-3′ T2) were used at different doses (5, 0.5, or 0.1 mg/pellet) were implanted in order to provide a continuous and constant drug delivery over 60 days (which represents 25 μg, 2.5 μg or 0.5 μg/day/100 g BW).
Wistar rats were treated with rT3 hormone by a daily intraperitoneal injection (IP) (25 μg/100 g BW), a daily sub-cutaneous injection (SC) (25 μg/100 g BW), or a per os administration included in the rat food (25 μg/100 g BW). The continuous and constant administration was performed by using a pellet (25 μg/100 g BW).
However the role of the administration site was further investigated by comparing continuous administration of rT3 by osmotic pump implanted either subcutaneously or intraperitonally with the reference treatment administered by sub-cutaneous pellets. Wistar rats were treated for 21 days with placebo, sub-cutaneous pellet or sub-cutaneous or intraperitoneal osmotic pumps. rT3 was administered continuously (2.5 μg/100 g).
Wistar rats were treated by a continuous and constant administration of low doses of rT3 by 3 different methods of administration: • a sub-cutaneous pellet, • an osmotic pump placed under the skin, and • an osmotic pump placed in the peritoneal cavity.

Wistar rats [2] = assay: Body composition (adipose tissues, skeletal muscles, brown adipose tissue) of Wistar rats; conditions: for White adipose tissue mass / Brown adipose tissue: 2.5 μg/100 g continuous
Excerpt: At the end of the experimental period, animals were sacrificed by decapitation, in order to avoid the well-known effects of general anesthetics on mitochondrial metabolism. Blood samples were immediately collected and plasma was frozen for subsequent determination of serum metabolites and hormones. Liver, muscles and fat depots were quickly excised and weighed. Liver median lobe was rapidly freeze-clamped. Muscles (plantaris, soleus and gastrocnemius) were frozen in isopentane precooled in liquid nitrogen. Mesenteric fat consisted of adipose tissue surrounding the gastro-intestinal tract from the gastro-oesophageal sphincter to the end of the rectum with special care taken in distinguishing and removing the pancreas. Retroperitoneal fat pad was taken as the distinct depot behind each kidney along the lumbar muscles. Epididymal fat consisted of adipose tissue on top of the epididymis. For subcutaneous depot measurement, a rectangular piece of skin was taken on the right side of each animal from the median line of the abdomen between the spine and the right hip to the first rib. Interscapular brown adipose tissue was removed and dissected free from adjacent muscles and white adipose tissue. The heart ventricles, the right kidney and the spleen were also excised, weighed and frozen.

liver mitochondria = assay: Rate of liver mitochondrial oxygen consumption (JO2) of treated Wistar rats; conditions: vs placebo
Protocol: The major part of the liver and the red part of each quadriceps were rinsed, and chopped into isolation medium (250 mM sucrose, 20 mM Tris-HCl and 1 mM EGTA-Tris, pH 7.4). Nuclei and cell debris were removed by centrifugation at 800 g for 10 min. Mitochondria were then isolated from the supernatant by spinning twice at 8,000 g for 10 minutes. The mitochondrial pellet was resuspended in 0.5 ml of isolation buffer and kept on ice. Mitochondrial protein was measured by the bicinchoninic acid method (Pierce, Rockford, Ill.). The final mitochondrial suspensions were maintained on ice and were used for measurements of oxygen consumption rate.
The rate of mitochondrial oxygen consumption (JO2) was measured at 30° C. in an incubation chamber with a Clark-type O2 electrode filled with 2 ml of incubation medium (125 mM KCl, 10 mM Pi-Tris, 20 mM Tris-HCl, 0.1 mM EGTA, pH 7.2). All measurements were performed using mitochondria (1.0 or 0.2 mg mitochondrial protein/ml for liver and skeletal muscle) incubated either with various substrates: glutamate/malate (5 mM/2.5 mM) and succinate (5 mM), alone or in combination, palmitoyl carnitine (55 μM) and octanoyl carnitine (100 μM). For each substrate, JO2 was recorded in the presence of the substrate alone (State 2) and following the addition of 1 mM ADP (state 3). Oligomycin (1.25 μg/mg protein) was added to the mitochondrial suspension to determine the non-phosphorylating respiratory rate (state 4). The incubation medium was constantly stirred with a built-in electromagnetic stirrer and bar flea. The efficiency of the mitochondrial oxidative phosphorylation was assessed by the state 3/state 4 ratio which measures the degree of control imposed on oxidation by phosphorylation (respiratory control ratio, RCR).

Wistar rats [3] = assay: OGTT in Wistar rats fed a high fat high sucrose diet; conditions: 8 weeks high fat high sucrose diet, rT3 2.5 μg/100 g, vs placebo
Protocol: A clinically relevant situation of a nutritionally-induced insulin resistance is known as a high fat high sucrose diet (HF). Therefore, the effects of rT3 on glucose and insulin response to an OGTT test were investigated. Wistar rats were fed a diet containing 45.5% fat (38% lard and 7.5% soy oil) and 34% carbohydrate (25% as sucrose) for 8 weeks. OGTT was performed as described above.

[4] = 25 μg/100 g BW/day, continuous subcutaneous pellet, 8 days
[5] = 250 μg/kg BW pellet, three weeks, vs placebo, p<0.01
[6] = high dose 25 μg/100 g BW pellet, three weeks, vs placebo
[7] = low dose 2.5 μg/100 g BW, sub-cutaneous pellet, 21 days
[8] = high dose 250 μg/kg BW/day, various substrates

SMILES: N[C@@H](Cc1ccc(Oc2cc(I)c(O)c(I)c2)c(I)c1)C(=O)O [rT3, 3′,5′,3-triiodothyronine]
- Body mass (Wistar rats [1]; osmotic pump in the peritoneal cavity, 21 days): significant reduction
- Body mass (Wistar rats [1]; osmotic pump under the skin, 21 days): significant reduction
- Food intake immediately after the pellet (Wistar rats [1]; 25 μg/100 g BW pellet, from day 4 until day 7): decrease
- Influence on the animal mass (rat body weight) (Wistar rats [1]; 25 μg/100 g BW/day, continuous and constant administration (subcutaneous pellet), 8 days): reduce the rat body weight
- Growth rate (body weight) (Wistar rats [1]; high dose 25 μg/100 g BW, subcutaneous pellet, 21 days, vs placebo): did not show any weight gain; also recorded: reduce the body weight
- Appetite (food intake) (Wistar rats [1]; low dose 2.5 μg/100 g BW): without modifying their appetite
- Body weight (body mass) (Wistar rats [1]; low dose 2.5 μg/100 g BW, sub-cutaneous pellet, 21 days, vs placebo): reduce the body weight; also recorded: significant reduction
- White adipose tissue mass (Wistar rats [2]; intra-peritoneal osmotic pump, 21 days): significant reduction
- Brown adipose tissue (Wistar rats [2]; intra-peritoneal pump, 21 days): all treatments were effective
- White adipose tissue mass (Wistar rats [2]; sub-cutaneous osmotic pump, 21 days): significant reduction
- Brown adipose tissue (Wistar rats [2]; sub-cutaneous pump, 21 days): more significantly enhanced
- Muscular mass (Wistar rats [2]; 25 μg/100 g BW, 8 days, whatever the administration (pellet, IP, per os, sc)): unchanged
- White fatty (adipose) tissue mass (Wistar rats [2]; 25 μg/100 g BW, daily intra-peritoneal injection, 8 days): have not effects
- White fatty (adipose) tissue mass (Wistar rats [2]; 25 μg/100 g BW, daily oral administration, 8 days): have not effects
- White fatty (adipose) tissue mass (Wistar rats [2]; 25 μg/100 g BW, daily sub-cutaneous injection, 8 days): have not effects
- Brown adipose tissue mass (Wistar rats [2]; [4]): significantly enhanced
- White fatty (adipose) tissue mass (Wistar rats [2]; [4]): significant white fatty tissue mass reduction
- Epididymal fat mass (Wistar rats [2]; 250 μg/kg BW pellet, three weeks, vs placebo): not different
- Mesenteric fat mass (Wistar rats [2]; [5]): significantly lower
- Retroperitoneal fat mass (Wistar rats [2]; [5]): significantly lower
- Subcutaneous fat mass (Wistar rats [2]; [5]): significantly lower
- Brown adipose tissue mass (Wistar rats [2]; [6]): significantly increased; also recorded: high increase
- Muscle mass (lean body mass) (Wistar rats [2]; [6]): not affected at all; also recorded: do not affect
- Muscle tissues mass (Wistar rats [2]; low dose 2.5 μg/100 g BW): do not affect
- Brown adipose tissue mass (Wistar rats [2]; [7]): intermediate increase; also recorded: more significantly enhanced
- White adipose tissue mass (fat mass) (Wistar rats [2]; [7]): reduces the fat mass with a lower efficiency; also recorded: significant reduction
- Liver mitochondrial respiratory rate, non-phosphorylating (state 4, oligomycin) (liver mitochondria; [8]): much higher as compared to placebo; also recorded: dose-dependent increase
- Liver mitochondrial respiratory rate, phosphorylating (state 3, ADP) (liver mitochondria; [8]): very significant increased respiratory rate; also recorded: dose-dependent increase
- Liver mitochondrial respiratory rate, non-phosphorylating (state 4) (liver mitochondria; low dose 25 μg/kg BW/day): decreased efficiency; also recorded: dose-dependent increase
- Liver mitochondrial respiratory rate, phosphorylating (state 3) (liver mitochondria; low dose 25 μg/kg BW/day): higher maximal respiratory capacity; also recorded: dose-dependent increase
- Blood glucose, area under the curve (AUC) after OGTT (Wistar rats [3]): significant lowering
- Blood glucose, change over time of plasma concentration after OGTT (Wistar rats [3]): significant lowering
- Insulin levels, AUC after OGTT (Wistar rats [3]): significantly lower
- Insulin levels, changes over time after OGTT (Wistar rats [3]): significantly lower

Reference: patent US20110064773A1, “PHARMACEUTICAL COMPOSITIONS COMPRISING A THYROID HORMON AND THEIR THERAPEUTIC USE” (UNIVERSITE JOSEPH FOURIER, priority 2007, published 2011)
